Each structure is given as a SMILES string.

This assay addresses truncated PI3Kα (p110α/iSH2 p85α), PI3KA_Act (Homo sapiens (Human), UniProt P42336). Briefly: PI3Kα biochemical kinase assay, fluorescence polarization format (PI3KA_Act). The following applies: 0.5 nM p110α/iSH2 p85, 1 mM ATP, 30 μM PIP2, 15-min preincubation; Morrison equation fit; read-out: PI3KA_Act Ki. As for the experimental part:
Enzyme Production for Biochemical Assay: p110α-iSH2 p85α Complex (Full Length p110α and p85α iSH2)(“PI3KA Act”)
Gene encoding p110α subunit was subcloned into polyhedrine promoter while gene encoding p85α niSH2 domains was subcloned into p10 promoter. […] Recombinant baculovirus was generated using Bac-to-Bac protocol (Life Technologies, Carlsbad, Calif.). Large scale expression was conducted in Sf21 (Life Technologies, Carlsbad, Calif.) cells at a multiplicity of infection (“MOI”)=1 for 48 hours. Cells were lyzed in 50 mM Tris pH 8.0, 250 mM NaCl, 5% glycerol, 0.25 mM TCEP, and 20 mM imidazole. The p110α-niSH2 p85α complex was purified from clarified supernatant using Immobilized Metalo Affinity Chromatography (“IMAC”). The protein was eluted from the column using 50 mM Tris pH 8.0, 200 mM NaCl, 0.25 mM TCEP, and 200 mM imidazole. Following elution p110α-niSH2 p85α complex was dialyzed against 4 liters of 50 mM Tris pH 8.0, 200 mM NaCl, 0.25 mM TCEP, and 40 mM imidazole in the presence of PreScission Protease (1:70 molar ratio of Protease to Protein) and TEV protease (1:40 molar ratio protease to protein) for 16 hours at 4° C. The protein was further purified using reverse IMAC to remove cleaved histidine tag and contaminants captured during initial IMAC purification. The mixture of p110α-iSH2 p85α complex and cleaved nSH2 was recovered in reverse IMAC 40 mM imidazole flow through and 60 mM imidazole wash fractions. Those fractions were pulled together and loaded on Superdex 200 26/60 SEC column equilibrated in 25 mM Tris, pH 8.0, 100 mM NaCl, 2% glycerol, and 2 mM TCEP.
The enzymatic reactions were conducted in 50 μL volumes in 96-well plates. […] The reactions were incubated for 30 min at room temperature, stopped with EDTA pH 8 (10 mM final concentration). […] The plate was shaken for 30 minutes and fluorescence polarization values were measured on an LJL Analyst HT plate reader (Molecular Devices, Sunnyvale, Calif.).
In general terms: In fluorescence polarisation assays a small probe gives low polarisation when free and higher when bound to something large.

truncated PI3Kα (p110α/iSH2 p85α), PI3KA_Act, sequence (P42336 whole entry, the tested form may be a part): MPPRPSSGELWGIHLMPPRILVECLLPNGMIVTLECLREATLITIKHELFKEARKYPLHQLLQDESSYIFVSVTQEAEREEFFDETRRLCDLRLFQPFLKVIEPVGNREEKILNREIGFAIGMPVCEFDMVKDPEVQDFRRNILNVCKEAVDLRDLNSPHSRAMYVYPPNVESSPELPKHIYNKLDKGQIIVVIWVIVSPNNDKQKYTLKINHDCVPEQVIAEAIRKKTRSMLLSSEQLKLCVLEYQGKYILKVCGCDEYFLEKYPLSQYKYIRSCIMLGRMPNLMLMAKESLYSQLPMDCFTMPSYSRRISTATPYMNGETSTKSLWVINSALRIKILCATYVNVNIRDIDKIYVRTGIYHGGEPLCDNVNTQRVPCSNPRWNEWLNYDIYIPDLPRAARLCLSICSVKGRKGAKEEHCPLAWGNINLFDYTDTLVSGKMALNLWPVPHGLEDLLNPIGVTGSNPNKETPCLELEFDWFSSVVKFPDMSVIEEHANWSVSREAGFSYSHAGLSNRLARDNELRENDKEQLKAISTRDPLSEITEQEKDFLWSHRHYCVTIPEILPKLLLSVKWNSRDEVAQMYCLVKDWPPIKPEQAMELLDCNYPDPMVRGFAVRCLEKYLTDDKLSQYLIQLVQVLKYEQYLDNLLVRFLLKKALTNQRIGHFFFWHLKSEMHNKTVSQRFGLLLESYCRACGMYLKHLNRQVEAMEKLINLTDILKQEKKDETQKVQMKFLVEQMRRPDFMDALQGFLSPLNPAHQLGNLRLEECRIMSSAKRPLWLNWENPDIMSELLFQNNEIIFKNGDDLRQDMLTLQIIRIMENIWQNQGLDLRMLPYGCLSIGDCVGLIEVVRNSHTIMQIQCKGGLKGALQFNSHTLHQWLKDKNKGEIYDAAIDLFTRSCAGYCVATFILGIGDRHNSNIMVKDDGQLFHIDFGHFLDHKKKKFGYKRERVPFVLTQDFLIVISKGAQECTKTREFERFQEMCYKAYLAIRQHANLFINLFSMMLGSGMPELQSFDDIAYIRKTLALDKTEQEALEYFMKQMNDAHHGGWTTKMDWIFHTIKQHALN

For the compound `C[C@H]1COCCN1c1nc(N[C@@]2(CO)CCN(C(=O)OC(C)(C)C)C2)cc(-c2cnc(N)nc2)n1` [Example 36, tert-butyl (3S)-3-({2′-amino-2-[(3S)-3-methylmorpholin-4-yl]-4,5′-bipyrimidin-6-yl}amino)-3-(hydroxymethyl)pyrrolidine-1-carboxylate], the Ki was under 0.018 nM.

Take `CC[C@@]1(Nc2cc(-c3cnc(N)nc3)nc(N3CCOCC3)n2)CCN(C(=O)OC(C)(C)C)C1` [Example 37, tert-butyl (3R)-3-{[2′-amino-2-(morpholin-4-yl)-4,5′-bipyrimidin-6-yl]amino}-3-ethylpyrrolidine-1-carboxylate]: the Ki amounted to 0.725 nM. For `CC(C)(C)OC(=O)N1CC[C@](CO)(Nc2nc(N3CCOCC3)nc(-c3cnc(N)nc3)c2F)C1` [Example 38, tert-butyl (3S)-3-{[2′-amino-5-fluoro-2-(morpholin-4-yl)-4,5′-bipyrimidin-6-yl]amino}-3-(hydroxymethyl)pyrrolidine-1-carboxylate] the value was under 0.018 nM. For `CC(C)(C)OC(=O)N1CC[C@](CO)(Nc2nc(-c3cnc(N)nc3)nc(N3CCOCC3)n2)C1` [Example 39, tert-butyl (3S)-3-{[4-(2-aminopyrimidin-5-yl)-6-(morpholin-4-yl)-1,3,5-triazin-2-yl]amino}-3-(hydroxymethyl)pyrrolidine-1-carboxylate], the Ki is 0.105 nM. For `CC(C)(C)OC(=O)N1CC[C@](C)(Nc2cc(-c3cnc(N)nc3)nc(N3CCOCC3)n2)C1` [Example 40, tert-butyl (3S)-3-{[2′-amino-2-(morpholin-4-yl)-4,5′-bipyrimidin-6-yl]amino}-3-methylpyrrolidine-1-carboxylate] the value was 0.095 nM; for `CC(C)(C)OC(=O)N1CC(CO)(Nc2cc(-c3cnc(N)nc3)nc(N3CCOCC3)n2)C1` [Example 41, tert-butyl 3-{[2′-amino-2-(morpholin-4-yl)-4,5′-bipyrimidin-6-yl]amino}-3-(hydroxymethyl)azetidine-1-carboxylate], 0.128 nM. The figure for `CC(=O)N1CC(CO)(Nc2cc(-c3cnc(N)nc3)nc(N3CCOCC3)n2)C1` [Example 42, 1-[3-{[2′-amino-2-(morpholin-4-yl)-4,5′-bipyrimidin-6-yl]amino}-3-(hydroxymethyl)azetidin-1-yl]ethanone] is 0.651 nM; for `Nc1ncc(-c2cc(NC3(CO)CNC3)nc(N3CCOCC3)n2)cn1` [Example 43, (3-{[2′-amino-2-(morpholin-4-yl)-4,5′-bipyrimidin-6-yl]amino}azetidin-3-yl)methanol] it is 1.97 nM; for `CC(C)OC(=O)N1CC[C@](CO)(Nc2cc(-c3cnc(N)nc3)nc(N3CCOCC3)n2)C1` [Example 44, propan-2-yl (3S)-3-{[2′-amino-2-(morpholin-4-yl)-4,5′-bipyrimidin-6-yl]amino}-3-(hydroxymethyl)pyrrolidine-1-carboxylate] it is 0.032 nM. The figure for `Nc1ncc(-c2cc(N[C@@]3(CO)CCN(C(=O)[C@@H]4CC4(F)F)C3)nc(N3CCOCC3)n2)cn1` [Example 46, [(3S)-3-{[2′-amino-2-(morpholin-4-yl)-4,5′-bipyrimidin-6-yl]amino}-3-(hydroxymethyl)pyrrolidin-1-yl][(1S)-2,2-difluorocyclopropyl]methanone] is under 0.018 nM; for `CC1(OC(=O)N2CC[C@](CO)(Nc3cc(-c4cnc(N)nc4)nc(N4CCOCC4)n3)C2)CC1` [Example 47, 1-methylcyclopropyl (3S)-3-{[2′-amino-2-(morpholin-4-yl)-4,5′-bipyrimidin-6-yl]amino}-3-(hydroxymethyl)pyrrolidine-1-carboxylate] it is 0.025 nM; for `CC(C)(C)NC(=O)N1CC[C@](CO)(Nc2cc(-c3cnc(N)nc3)nc(N3CCOCC3)n2)C1` [Example 48, (3S)-3-{[2′-amino-2-(morpholin-4-yl)-4,5′-bipyrimidin-6-yl]amino}-N-tert-butyl-3-(hydroxymethyl)pyrrolidine-1-carboxamide] it is 0.714 nM. Regarding `C[C@H]1COCCN1c1nc(NC2(CO)CN(C(=O)OC(C)(C)C)C2)cc(-c2cnc(N)nc2)n1` [Example 49, tert-butyl 3-({2′-amino-2-[(3S)-3-methylmorpholin-4-yl]-4,5′-bipyrimidin-6-yl}amino)-3-(hydroxymethyl)azetidine-1-carboxylate], the inhibition constant (Ki) stood at 0.083 nM.

Turning to `CC(C)[C@@H](N)C(=O)N1CC[C@](CO)(Nc2cc(-c3cnc(N)nc3)nc(N3CCOCC3)n2)C1` [Example 50, (2R)-2-amino-1-[(3S)-3-{[2′-amino-2-(morpholin-4-yl)-4,5′-bipyrimidin-6-yl]amino}-3-(hydroxymethyl)pyrrolidin-1-yl]-3-methylbutan-1-one], the Ki is 0.137 nM. Regarding `CC(C)[C@H](N)C(=O)N1CC[C@](CO)(Nc2cc(-c3cnc(N)nc3)nc(N3CCOCC3)n2)C1` [Example 51, (2S)-2-amino-1-[(3S)-3-{[2′-amino-2-(morpholin-4-yl)-4,5′-bipyrimidin-6-yl]amino}-3-(hydroxymethyl)pyrrolidin-1-yl]-3-methylbutan-1-one], the Ki was 0.619 nM. The figure for `CC(C)S(=O)(=O)N1CC[C@](CO)(Nc2cc(-c3cnc(N)nc3)nc(N3CCOCC3)n2)C1` [Example 52, [(3S)-3-{[2′-amino-2-(morpholin-4-yl)-4,5′-bipyrimidin-6-yl]amino}-1-(propan-2-ylsulfonyl)pyrrolidin-3-yl]methanol] is 0.084 nM; for `C[C@H]1COCCN1c1nc(NC2(CO)CNC2)cc(-c2cnc(N)nc2)n1` [Example 54, [3-({2′-amino-2-[(3S)-3-methylmorpholin-4-yl]-4,5′-bipyrimidin-6-yl}amino)azetidin-3-yl]methanol] it is 2.67 nM; for `Nc1ncc(-c2cc(N[C@@]3(CO)CCN(C(=O)[C@H](O)c4ccccc4)C3)nc(N3CCOCC3)n2)cn1` [Example 55, (2R)-1-[(3S)-3-{[2′-amino-2-(morpholin-4-yl)-4,5′-bipyrimidin-6-yl]amino}-3-(hydroxymethyl)pyrrolidin-1-yl]-2-hydroxy-2-phenylethanone] it is 0.371 nM.

In the case of `Nc1ncc(-c2cc(N[C@@]3(CO)CCN(C(=O)C4(F)CC4)C3)nc(N3CCOCC3)n2)cn1` [Example 56, [(3S)-3-{[2′-amino-2-(morpholin-4-yl)-4,5′-bipyrimidin-6-yl]amino}-3-(hydroxymethyl)pyrrolidin-1-yl](1-fluorocyclopropyl)methanone], the Ki was under 0.018 nM.

As to `CC(C)CC(=O)N1CC[C@](CO)(Nc2cc(-c3cnc(N)nc3)nc(N3CCOCC3)n2)C1` [Example 57, 1-[(3S)-3-{[2′-amino-2-(morpholin-4-yl)-4,5′-bipyrimidin-6-yl]amino}-3-(hydroxymethyl)pyrrolidin-1-yl]-3-methylbutan-1-one], the Ki was 0.116 nM. Consider `COC(=O)N1CC[C@](CO)(Nc2cc(-c3cnc(N)nc3C(F)(F)F)nc(N3CCOCC3)n2)C1` [Example 58, methyl (3S)-3-{[2′-amino-2-(morpholin-4-yl)-4′-(trifluoromethyl)-4,5′-bipyrimidin-6-yl]amino}-3-(hydroxymethyl)pyrrolidine-1-carboxylate], for which the Ki came out at 0.2 nM. `COC(=O)N1CC[C@](CO)(Nc2cc(-c3cnc(N)nc3C)nc(N3CCOCC3)n2)C1` [Example 59, methyl (3S)-3-{[2′-amino-4′-methyl-2-(morpholin-4-yl)-4,5′-bipyrimidin-6-yl]amino}-3-(hydroxymethyl)pyrrolidine-1-carboxylate]: the Ki is 0.18 nM. For `Nc1ncc(-c2cc(N[C@@]3(CO)CCN(C(=O)[C@@H](O)c4ccccc4)C3)nc(N3CCOCC3)n2)cn1` [Example 60, (2S)-1-[(3S)-3-{[2′-amino-2-(morpholin-4-yl)-4,5′-bipyrimidin-6-yl]amino}-3-(hydroxymethyl)pyrrolidin-1-yl]-2-hydroxy-2-phenylethanone] the value was 12.7 nM; for `CC(C)(C)CC(=O)N1CC[C@](CO)(Nc2cc(-c3cnc(N)nc3)nc(N3CCOCC3)n2)C1` [Example 61, 1-[(3S)-3-{[2′-amino-2-(morpholin-4-yl)-4,5′-bipyrimidin-6-yl]amino}-3-(hydroxymethyl)pyrrolidin-1-yl]-3,3-dimethylbutan-1-one], 0.054 nM. For `Nc1ncc(-c2cc(N[C@@]3(CO)CCN(C(=O)c4ccccn4)C3)nc(N3CCOCC3)n2)cn1` [Example 63, [(3S)-3-{[2′-amino-2-(morpholin-4-yl)-4,5′-bipyrimidin-6-yl]amino}-3-(hydroxymethyl)pyrrolidin-1-yl](pyridin-2-yl)methanone], the Ki worked out at 0.062 nM.

One may read the Ki as the equilibrium dissociation constant of an inhibitor or competing ligand from its target.
